From paper PMC2941766 (Molecular pharmaceutics, 2010)
Where two headings read alike, the source gives them in different places.

Tests used:
Assay type in all cases: in vitro ADME
[1] = target: T1, UGT2B7 (Homo sapiens, UniProt P16662); assay: Glucuronidation by expressed human UGT2B7; settings: for glucuronidation rate: human, pH 7.4
T1 sequence (P16662 24-529): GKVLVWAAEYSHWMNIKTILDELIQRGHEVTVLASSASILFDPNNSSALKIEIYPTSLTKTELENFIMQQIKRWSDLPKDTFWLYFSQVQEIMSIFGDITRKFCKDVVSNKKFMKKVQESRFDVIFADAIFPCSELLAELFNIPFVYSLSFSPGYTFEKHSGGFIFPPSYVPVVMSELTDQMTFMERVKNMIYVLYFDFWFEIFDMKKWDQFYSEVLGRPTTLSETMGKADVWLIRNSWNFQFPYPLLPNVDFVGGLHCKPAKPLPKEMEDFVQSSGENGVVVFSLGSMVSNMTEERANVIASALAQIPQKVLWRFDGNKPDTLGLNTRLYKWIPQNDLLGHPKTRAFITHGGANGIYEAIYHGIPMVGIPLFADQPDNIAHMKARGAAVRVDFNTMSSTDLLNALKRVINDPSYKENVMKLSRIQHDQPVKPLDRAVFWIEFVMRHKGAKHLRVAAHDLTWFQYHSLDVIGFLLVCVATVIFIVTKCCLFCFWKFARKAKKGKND

[2] = target: T2, UGT1A8 (Homo sapiens, UniProt Q9HAW9); assay: Glucuronidation by expressed human UGT1A8
T2 sequence (Q9HAW9 26-530): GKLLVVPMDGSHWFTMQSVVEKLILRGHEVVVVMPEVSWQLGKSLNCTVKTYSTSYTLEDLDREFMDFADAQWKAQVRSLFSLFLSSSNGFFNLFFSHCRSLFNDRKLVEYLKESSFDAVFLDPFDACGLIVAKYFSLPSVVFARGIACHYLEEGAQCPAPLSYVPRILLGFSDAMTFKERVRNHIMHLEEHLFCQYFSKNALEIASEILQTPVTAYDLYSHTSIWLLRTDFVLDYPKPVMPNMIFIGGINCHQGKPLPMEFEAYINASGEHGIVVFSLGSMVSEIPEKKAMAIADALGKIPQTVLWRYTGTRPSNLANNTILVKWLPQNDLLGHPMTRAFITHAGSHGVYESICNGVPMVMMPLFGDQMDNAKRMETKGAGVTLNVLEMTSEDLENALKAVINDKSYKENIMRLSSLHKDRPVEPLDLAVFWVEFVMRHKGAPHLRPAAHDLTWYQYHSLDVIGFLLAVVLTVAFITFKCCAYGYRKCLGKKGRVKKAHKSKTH

[3] = target: T3, UGT1A7 (Homo sapiens, UniProt Q9HAW7); assay: Glucuronidation by expressed human UGT1A7
T3 sequence (Q9HAW7 26-530): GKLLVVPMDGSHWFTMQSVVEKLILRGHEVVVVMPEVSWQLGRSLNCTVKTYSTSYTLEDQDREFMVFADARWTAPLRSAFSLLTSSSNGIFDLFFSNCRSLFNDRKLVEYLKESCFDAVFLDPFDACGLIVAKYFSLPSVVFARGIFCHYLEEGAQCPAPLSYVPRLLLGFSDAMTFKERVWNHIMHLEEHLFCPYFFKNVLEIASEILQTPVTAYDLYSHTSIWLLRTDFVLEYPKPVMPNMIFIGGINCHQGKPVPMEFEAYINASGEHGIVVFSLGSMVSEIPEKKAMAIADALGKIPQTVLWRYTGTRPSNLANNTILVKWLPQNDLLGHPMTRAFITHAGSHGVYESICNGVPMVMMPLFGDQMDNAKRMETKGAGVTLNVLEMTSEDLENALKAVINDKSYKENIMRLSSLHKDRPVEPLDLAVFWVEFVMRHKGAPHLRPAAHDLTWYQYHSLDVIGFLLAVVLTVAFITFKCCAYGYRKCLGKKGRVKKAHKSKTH

[4] = target: T4, UGT1A9 (Homo sapiens, UniProt O60656); assay: Glucuronidation by expressed human UGT1A9
T4 sequence (O60656 26-530): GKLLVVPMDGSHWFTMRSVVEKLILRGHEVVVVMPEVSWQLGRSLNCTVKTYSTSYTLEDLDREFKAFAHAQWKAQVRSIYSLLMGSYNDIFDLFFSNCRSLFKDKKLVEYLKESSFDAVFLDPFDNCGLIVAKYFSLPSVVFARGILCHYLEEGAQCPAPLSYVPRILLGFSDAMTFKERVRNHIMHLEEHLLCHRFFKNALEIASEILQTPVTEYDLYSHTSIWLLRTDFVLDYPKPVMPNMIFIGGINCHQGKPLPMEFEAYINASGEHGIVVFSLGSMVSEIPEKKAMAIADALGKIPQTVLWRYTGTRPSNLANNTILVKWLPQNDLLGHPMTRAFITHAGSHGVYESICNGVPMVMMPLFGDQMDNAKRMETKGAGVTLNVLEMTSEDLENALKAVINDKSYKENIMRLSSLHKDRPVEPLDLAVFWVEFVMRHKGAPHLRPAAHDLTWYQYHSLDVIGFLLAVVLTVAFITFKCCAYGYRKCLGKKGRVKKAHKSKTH

[5] = Glucuronidation by pooled human liver microsomes
[6] = target: T5, UGT1A10 (Homo sapiens, UniProt Q9HAW8); assay: Glucuronidation by expressed human UGT1A10
T5 sequence (Q9HAW8 26-530): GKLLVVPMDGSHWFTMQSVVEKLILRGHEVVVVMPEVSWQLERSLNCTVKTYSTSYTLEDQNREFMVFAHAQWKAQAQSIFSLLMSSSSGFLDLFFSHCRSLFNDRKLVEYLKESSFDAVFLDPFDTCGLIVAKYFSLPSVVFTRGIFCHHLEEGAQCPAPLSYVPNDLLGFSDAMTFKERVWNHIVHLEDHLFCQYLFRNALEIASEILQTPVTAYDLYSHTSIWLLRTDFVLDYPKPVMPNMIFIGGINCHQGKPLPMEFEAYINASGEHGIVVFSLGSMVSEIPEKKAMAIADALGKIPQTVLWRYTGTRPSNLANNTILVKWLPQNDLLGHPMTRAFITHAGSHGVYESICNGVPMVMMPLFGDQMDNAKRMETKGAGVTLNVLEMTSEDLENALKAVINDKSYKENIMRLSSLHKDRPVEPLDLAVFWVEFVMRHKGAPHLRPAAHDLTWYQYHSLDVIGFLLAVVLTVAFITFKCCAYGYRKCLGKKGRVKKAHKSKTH

[7] = target: T6, UGT1A1 (Homo sapiens, UniProt P22309); assay: Glucuronidation by expressed human UGT1A1
T6 sequence (P22309 26-533): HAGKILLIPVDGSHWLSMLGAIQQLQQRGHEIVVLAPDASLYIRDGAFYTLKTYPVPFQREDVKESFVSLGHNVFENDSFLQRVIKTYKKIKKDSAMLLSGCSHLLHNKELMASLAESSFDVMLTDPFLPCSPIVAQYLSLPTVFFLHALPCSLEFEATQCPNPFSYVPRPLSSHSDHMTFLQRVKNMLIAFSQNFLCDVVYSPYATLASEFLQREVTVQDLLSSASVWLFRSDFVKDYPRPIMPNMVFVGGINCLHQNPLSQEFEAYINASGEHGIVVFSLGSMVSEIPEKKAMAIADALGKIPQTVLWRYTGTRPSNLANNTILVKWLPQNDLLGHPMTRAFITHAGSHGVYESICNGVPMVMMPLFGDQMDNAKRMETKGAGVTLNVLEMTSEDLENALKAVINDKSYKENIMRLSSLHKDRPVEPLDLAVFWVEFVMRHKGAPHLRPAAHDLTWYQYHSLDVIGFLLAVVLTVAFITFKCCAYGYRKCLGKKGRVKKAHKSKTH

[8] = Glucuronidation by pooled human intestinal microsomes; settings: human, 2.5 μM, pH 7.4
[9] = UGT2B7, conclusion from fingerprints
[10] = human liver microsomes, 2.5μM substrate

| substrate of UGT2B7 [1, 9] | glucuronidation rate ([2]; UGT1A8, 2.5μM substrate, 37°C) | glucuronidation rate ([3]; UGT1A7, 2.5μM substrate, 37°C) | glucuronidation rate ([4]; UGT1A9, 2.5 μM substrate, 37°C) | glucuronidation rate [5, 10] | glucuronidation rate ([6]; UGT1A10, 10 μM substrate, 37°C) | SMILES | glucuronidation rate ([7]; UGT1A1, 2.5μM substrate, 37°C) | also measured |
| --- | --- | --- | --- | --- | --- | --- | --- | --- |
|  | 1.18±0.26 nmol per min per mg of protein | 1.13±0.11 nmol per min per mg of protein | 0.43±0.06 nmol per min per mg of protein | 0.97±0.03 nmol per min per mg of protein | 0.09±0.01 nmol per min per mg of protein | O=c1cc(-c2ccccc2O)oc2ccccc12 [2′-HF, 2′-hydroxyflavone] | 1.28±0.12 nmol per min per mg of protein |  |
|  | 0.00±0.00 nmol per min per mg of protein | 0 nmol per min per mg of protein | not detectable | 0.80±0.05 nmol per min per mg of protein | 0.30±0.05 nmol per min per mg of protein | O=c1cc(-c2ccc(O)cc2)oc2ccccc12 [4′-HF, 4′-hydroxyflavone] | 1.34 ±0.21 nmol per min per mg of protein | glucuronidation (detectable metabolism) ([4]; UGT1A9, 35 μM substrate): no detectable metabolism |

Further lines, the compound ahead of its results:

| SMILES | substrate of UGT2B7 [1, 9] | glucuronidation rate ([2]; UGT1A8, 2.5μM substrate, 37°C) | glucuronidation rate ([3]; UGT1A7, 2.5μM substrate, 37°C) | glucuronidation rate ([4]; UGT1A9, 2.5 μM substrate, 37°C) | glucuronidation rate [5, 10] | glucuronidation rate ([6]; UGT1A10, 10 μM substrate, 37°C) | glucuronidation rate ([7]; UGT1A1, 2.5μM substrate, 37°C) | also measured |
| --- | --- | --- | --- | --- | --- | --- | --- | --- |
| O=c1c(O)c(-c2ccccc2)oc2cc(O)ccc12 [3,7-diHF, 3,7-dihydroxyflavone] | substrates |  |  |  |  |  |  |  |
| O=c1cc(-c2ccccc2)oc2ccc(O)cc12 [6-HF, 6-hydroxyflavone] |  | 0.87±0.12 nmol per min per mg of protein | 0 nmol per min per mg of protein | 0.10±0.00 nmol per min per mg of protein | 0.91±0.04 nmol per min per mg of protein | 0.62±0.07 nmol per min per mg of protein | 1.50±0.18 nmol per min per mg of protein |  |
| O=c1cc(-c2ccccc2)oc2cccc(O)c12 [5-HF, 5-hydroxyflavone] |  |  |  |  |  |  |  | glucuronidation rate ([2]; human, 2.5 μM, pH 7.4): 0.28±0.04 nmol per min per mg of protein; glucuronidation rate ([3]; human, 2.5 μM, pH 7.4): 0 nmol per min per mg of protein; glucuronidation rate ([4]; human, 2.5 μM, pH 7.4): 0.29±0.01 nmol per min per mg of protein; glucuronidation rate ([5]; human, 2.5 μM, pH 7.4): 0.00±0.00 nmol per min per mg of protein; substrate of UGT2B7 [1]: substrates; glucuronidation rate ([1]; 2.5 μM): 0.20±0.01 nmol per min per mg of protein; glucuronidation rate ([1]; 10 μM): 0.40±0.02 nmol per min per mg of protein; glucuronidation rate ([1]; 35 μM): 0.11±0.00 nmol per min per mg of protein; glucuronidation rate [8]: 0.49±0.06 nmol per min per mg of protein; glucuronidation rate ([6]; human, 10 μM, pH 7.4): 0.12±0.01 nmol per min per mg of protein; glucuronidation rate ([7]; human, 2.5 μM, pH 7.4): 0.28±0.00 nmol per min per mg of protein; glucuronidation rate ([7]; human, 10 μM, pH 7.4): 0.28±0.01 nmol per min per mg of protein; glucuronidation rate ([7]; human, 35 μM, pH 7.4): 0.308±0.02 nmol per min per mg of protein |
| O=c1c(O)c(-c2ccc(O)cc2)oc2ccccc12 [3,4′-diHF, 3,4′-dihydroxyflavone] | substrates |  |  |  |  |  |  |  |
| O=c1c(O)c(-c2ccccc2)oc2cccc(O)c12 [3,5-diHF, 3,5-dihydroxyflavone] | substrates |  |  |  |  |  |  |  |
| O=c1cc(-c2ccccc2)oc2cc(O)ccc12 [7-HF, 7-hydroxyflavone] |  | 0.23±0.03 nmol per min per mg of protein | 0 nmol per min per mg of protein | 1.30±0.09 nmol per min per mg of protein | 1.39±0.01 nmol per min per mg of protein | 0.17±0.03 nmol per min per mg of protein | 1.73 ±0.21 nmol per min per mg of protein |  |
| O=c1cc(-c2cccc(O)c2)oc2ccccc12 [3′-HF, 3′-hydroxyflavone] |  | 0.27 ±0.02 nmol per min per mg of protein | 1.44±0.20 nmol per min per mg of protein | 0.48±0.13 nmol per min per mg of protein | 3.14±0.01 nmol per min per mg of protein | 0.86±0.08 nmol per min per mg of protein | 1.59 ±0.26 nmol per min per mg of protein |  |
